Experiment [1] relates to Mycolicibacterium smegmatis. The experiment can be described thus: Potentiation of cefotaxime-induced antibacterial activity against Mycobacterium smegmatis assessed as cefotaxime MIC incubated for 48 hrs by alamar blue assay (reference value: 64 ug/ml). The experiment is classed as functional.
Experiment [2] deals with Mycobacterium tuberculosis. Briefly: Anti-mycobacterial activity against Mycobacterium tuberculosis H37Rv assessed as bacterial growth inhibition incubated for 7 days by REMA assay. Particulars: 168 h, time 7 day. The experiment is classed as functional.
In experiment [3] the test system is Escherichia coli. Briefly: Antibacterial activity against Escherichia coli assessed as bacterial growth inhibition incubated for 18 to 24 hrs by broth microdilution assay. The experiment is classed as functional. Particulars: time 18-24 hrs. For orientation: Broth dilution looks for growth in wells or tubes with falling amounts of substance.
The subject of experiment [4] is Staphylococcus aureus. Briefly: Antibacterial activity against Staphylococcus aureus assessed as bacterial growth inhibition incubated for 18 to 24 hrs by broth microdilution assay. Format: functional. The conditions noted are these: time 18-24 hrs.
The test system of experiment [5] is Staphylococcus aureus. The experiment can be described thus: Antibacterial activity against methicillin-resistant Staphylococcus aureus ATCC 33591 assessed as bacterial growth inhibition by CLSI based broth microdilution method. Format: functional.
Experiment [6] concerns Mycobacterium tuberculosis. Briefly: Anti-mycobacterial activity against Mycobacterium tuberculosis H37Rv ATCC […] assessed as bacterial growth inhibition by alamar blue assay. The experiment is classed as functional.
In experiment [7] the test system is Escherichia coli. Briefly: Antibacterial activity against Escherichia coli assessed as bacterial growth inhibition incubated for 24 hrs. Format: functional.
The subject of another experiment is Clostridioides difficile. The experiment can be described thus: Antibacterial activity against Clostridium difficile assessed as bacterial growth inhibition incubated for 24 hrs. The experiment is classed as functional.
The subject of a further experiment is Klebsiella pneumoniae. Briefly: Antibacterial activity against Klebsiella pneumoniae assessed as bacterial growth inhibition. Format: functional.
The next experiment concerns Enterococcus faecalis. The experiment can be described thus: Antibacterial activity against vancomycin-resistant Enterococcus faecalis assessed as bacterial growth inhibition. Format: functional.
The subject of experiment [8] is Staphylococcus aureus. The experiment can be described thus: Antibacterial activity against methicillin-resistant Staphylococcus aureus assessed as bacterial growth inhibition. The experiment is classed as functional.
The subject of experiment [9] is Staphylococcus epidermidis. Briefly: Antibacterial activity against methicillin-resistant Staphylococcus epidermidis assessed as bacterial growth inhibition. Format: functional.
Another experiment deals with Pseudomonas aeruginosa. The experiment can be described thus: Antibacterial activity against Pseudomonas aeruginosa assessed as bacterial growth inhibition. The experiment is classed as functional.
In experiment [10] the test system is Escherichia coli. The experiment can be described thus: Antibacterial activity against Escherichia coli assessed as bacterial growth inhibition. The experiment is classed as functional.
Experiment [11] relates to Staphylococcus aureus. The experiment can be described thus: Antibacterial activity against Staphylococcus aureus assessed as bacterial growth inhibition incubated for 24 hrs. Format: functional.
A short description of experiment [12]: Inhibition of Mycobacterium smegmatis biofilm fromation incubated for 48 hrs by crystal violet staining based analysis. The experiment is classed as functional, Mycolicibacterium smegmatis.
Another experiment relates to Plasmodium falciparum. The experiment can be described thus: Antiplasmodial activity against Plasmodium falciparum. Format: functional, organism-based.
Experiment [13] has as its system Mycobacterium tuberculosis. The experiment can be described thus: Potentiation of isoniazid-induced antimycobacterial activity against Mycobacterium tuberculosis H37Rv assessed as reduction in isoniazid MIC at 250 uM incubated for 48 hrs by alamar blue staining based analysis. The experiment is classed as functional. On the technique in general: Alamar Blue is a resazurin reagent that responds to reducing activity.

For experiment [14], the system named is Mycobacterium tuberculosis. The experiment can be described thus: Potentiation of isoniazid-induced antimycobacterial activity against Mycobacterium tuberculosis H37Rv assessed as reduction in isoniazid MIC at 125 uM incubated for 48 hrs by alamar blue staining based analysis. The experiment is classed as functional.
Experiment [15] concerns Nakaseomyces glabratus. The experiment can be described thus: Synergistic antifungal activity against Candida glabrata assessed as fractional inhibitory concentration index in presence of amphotericin incubated for 18 hrs by checkerboard assay. The experiment is classed as functional.
Experiment [16] has as its system Nakaseomyces glabratus. Briefly: Synergistic antifungal activity against Candida glabrata assessed as fractional inhibitory concentration index in presence of fluconazole incubated for 18 hrs by checkerboard assay. Format: functional.
The subject of experiment [17] is Nakaseomyces glabratus. The experiment can be described thus: Synergistic antifungal activity against Candida glabrata assessed as fractional inhibitory concentration index in presence of voriconazole incubated for 18 hrs by checkerboard assay. The experiment is classed as functional.
For experiment [18], the system named is Mycobacterium tuberculosis. Briefly: Anti-mycobacterial activity against Mycobacterium tuberculosis H37Rv assessed as growth inhibition incubated for 48 hrs by alamar blue staining based analysis. Format: functional.

In brackets after ≈: the same amount, converted by molar mass. Where only a bound is given, the exact number is not on record here.

What is called MIC is the least concentration at which growth counts as inhibited. Broadly, the IC50 is the concentration at which inhibition is half-maximal. Low readings indicate inhibition by little substance, high ones a need for much substance.

Turning to `CCCCCCCC(NC(=O)CCCc1c[nH]c(N)n1)c1ccccc1` (stereo unspecified), in [1], the MIC worked out at 2 µg/mL.
In the case of `COc1ccc(C2C(C(C)=O)=C(C)Nc3nc(N)[nH]c(=O)c32)cc1OC` (stereo unspecified), the MIC in experiment [2] was found to be 1.95 µg/mL (≈ 5.47 µM).
Regarding `N=C(N)NCCNC(=O)[C@H](Cc1c[nH]c2ccccc12)NC(=O)c1cc(Br)ccc1NC(=O)c1ccc2ccccc2c1`, the MIC came to 15.6 µM (≈ 9.99 µg/mL) in the experiment on Escherichia coli [3] and 2 µM (≈ 1.28 µg/mL) with Staphylococcus aureus [4].
On to `N=C(N)NC[C@H]1OC(O[C@@H]2[C@@H](O)[C@H](O[C@H]3O[C@H](CN)[C@@H](O)[C@H](O)[C@H]3O)[C@@H](N)C[C@H]2N)[C@H](O)[C@@H](N)[C@@H]1O` (stereo partly specified), for which the MIC in the experiment on Staphylococcus aureus [5] was 3.12 µg/mL (≈ 5.95 µM).
`Cc1nn(-c2ccccc2)c(Cl)c1-c1nc(N)nc2c1c(C)nn2-c1ccccc1Cl`: the MIC in experiment [6] amounted to 1.2 µg/mL (≈ 2.66 µM).
Take `COC(=O)C(CCCCNC(=N)N)NC(=O)C(=O)c1cc(Br)ccc1NC(=O)c1ccc2ccccc2c1.Cl` (stereo unspecified): in the experiment with Escherichia coli [7], the MIC was determined as 19 µg/mL.
`CCCCCCN1C(=N)N(CC(=O)Nc2cccc(NC(=O)CN3C[C@H](Cc4ccccc4)N(CCCCCC)C3=N)c2)C[C@@H]1Cc1ccccc1`: the MIC was found to be 1 µg/mL (≈ 1.41 µM) with Clostridioides difficile; 0.75 µg/mL (≈ 1.06 µM) in the experiment on Klebsiella pneumoniae; 0.75 µg/mL (≈ 1.06 µM) with Enterococcus faecalis; 0.16 µg/mL (≈ 0.226 µM) in the experiment with Staphylococcus aureus [8]; 0.75 µg/mL (≈ 1.06 µM) in [9]; 4 µg/mL (≈ 5.66 µM) with Pseudomonas aeruginosa. For the same molecule, the MIC in the experiment with Escherichia coli [10] came to 0.75 µg/mL (≈ 1.06 µM).
On to `COC(=O)C(CCCNC(=N)N)NC(=O)C(CCCCNC(=N)N)NC(=O)C(=O)c1cc(Br)ccc1NC(=O)c1ccc2ccccc2c1.Cl.Cl` (stereo unspecified), for which the MIC in the experiment with Staphylococcus aureus [11] is 10 µg/mL.
With `CCCCCOc1ccc(-c2nc(N)[nH]c2C(F)(F)F)cc1`, the IC50 in experiment [12] was less than 10 µM.
Molecule `CCC/C=C\CCC[C@@H]1C2N=C(N)N[C@H]3CC[C@@H](C[C@H]1CCC)C23` (stereo partly specified) gave an IC50 with Plasmodium falciparum of 8.37 µM.
Regarding `N=C(N)NCCNC(=O)[C@H](Cc1c[nH]c2ccccc12)NC(=O)c1cc(F)ccc1NC(=O)c1ccc2ccccc2c1`, the MIC with Staphylococcus aureus [4] amounted to 2 µM (≈ 1.16 µg/mL).
`CCCCCCc1ccc(-c2nc(N)[nH]c2C(F)(F)F)cc1` yielded an IC50 in experiment [12] of less than 10 µM.
Take `CCCCCCC(CCCCCC)NC(=O)CCCc1c[nH]c(N)n1`: the MIC in experiment [13] and in [14] was 0.039 µg/mL in each case.
On to `CCCCNC(=N)NC(=N)N` [BUFORMIN], for which the “fractional inhibitory concentration index (FICI)” value in the experiment on Nakaseomyces glabratus [15], in the experiment on Nakaseomyces glabratus [16] and in the experiment on Nakaseomyces glabratus [17] was 0.5 each time.
With `NNC(=O)c1ccncc1` [ISONIAZID], the MIC in experiment [18] stood at 0.625 µg/mL (≈ 4.56 µM).
With `CN(C)C(=N)NC(=N)N` [METFORMIN], the “fractional inhibitory concentration index (FICI)” value in the experiment on Nakaseomyces glabratus [15], in the experiment on Nakaseomyces glabratus [16] and in the experiment on Nakaseomyces glabratus [17] was 0.5 in each case.
For the molecule `N=C(N)NC(=N)NCCc1ccccc1` [PHENFORMIN], the “fractional inhibitory concentration index (FICI)” value in the experiment with Nakaseomyces glabratus [15], with Nakaseomyces glabratus [16] and in the experiment with Nakaseomyces glabratus [17] was 0.5 in each case.

These data come from ChEMBL document CHEMBL5149974, “Antimicrobial drugs bearing guanidine moieties: A review” (Eur J Med Chem, 2021).
